Source: US7217682B2, “Cyclopropanecarboxylic acid esters and pest controllers containing the same” (Sumitomo Chemical Company, Limited, priority 2001, dated 2007)

Each molecule was assayed on Adult houseflies (assay: Knock-down test on adult houseflies, oil solution sprayed into a cubic chamber). Settings: 0.7 ml of 0.025% oil solution sprayed in 70 cm cubic chamber; 5 male and 5 female adult houseflies; counted for 10 minutes; average of two repeats.
Assay type: in vivo
Text: A solution of 0.025 part of Present Compound 1 to 6 dissolved with 10 parts of dichloromethane was mixed with […] parts of deodorized kerosene to give a 0.025% oil solution.
Adult houseflies (5 males and 5 females) were left in a cubic chamber (70 cm at side). Seven-tenths (0.7) ml of the 0.025% oil solution of Present Compound 1 to 6 prepared above was sprayed with a spray gun at a pressure of 8.8×10^4 Pa from a small window on the side of the chamber. Then, the number of the knocked-down insects was counted at times for 10 minutes. The time for knocking down half of the tested insects (KT50) was calculated from the result.
Furthermore, the test was similarly done by using (4-methoxymethyl-2,3,5,6-tetrafluoro)phenylmethyl [1R[1α, 3β(Z)]]-2,2-dimethyl-3-(2-fluoro-3-methoxy-3-oxopropenyl)cyclopropanecarboxylate (hereinafter, referred to as Comparative Compound):
[drawing 12] described in GB patent publication 2,268,740 as a comparative compound. The tests were done twice repeat, and the KT50 values were calculated from the averages.

| SMILES | KT50 (time for knocking down half of the tested insects) [min] |
| --- | --- |
| C=CCOC(=O)/C(C#N)=C/C1C(C(=O)OCc2c(F)c(F)c(COC)c(F)c2F)C1(C)C (stereo not shown) [Present Compound 4, 4-methoxymethyl-2,3,5,6-tetrafluorobenzyl 2,2-dimethyl-3-((E)-2-cyano-3-allyloxy-3-oxo-1-propenyl) cyclopropanecarboxylate] | 4.3 |
| COCc1c(F)c(F)c(COC(=O)C2C(/C=C(\C#N)C(=O)OC)C2(C)C)c(F)c1F (stereo not shown) [Present Compound 2, 4-methoxymethyl-2,3,5,6-tetrafluorobenzyl 2,2-dimethyl-3-((E)-2-cyano-3-methoxy-3-oxo-1-propenyl) cyclopropanecarboxylate] | 1.9 |
| CCOC(=O)/C(C#N)=C/C1C(C(=O)OCc2c(F)c(F)c(COC)c(F)c2F)C1(C)C (stereo not shown) [Present Compound 1, 4-methoxymethyl-2,3,5,6-tetrafluorobenzyl 2,2-dimethyl-3-((E)-2-cyano-3-ethoxy-3-oxo-1-propenyl) cyclopropanecarboxylate] | 1.5 |
| COCc1c(F)c(F)c(COC(=O)C2C(/C=C(\C#N)C(=O)OC(C)C)C2(C)C)c(F)c1F (stereo not shown) [Present Compound 5, 4-methoxymethyl-2,3,5,6-tetrafluorobenzyl 2,2-dimethyl-3-((E)-2-cyano-3-isopropoxy-3-oxo-1-propenyl) cyclopropanecarboxylate] | 1.5 |
| COCc1c(F)c(F)c(COC(=O)C2C(/C=C(\C#N)C(=O)OC(C)(C)C)C2(C)C)c(F)c1F (stereo not shown) [Present Compound 6, 4-methoxymethyl-2,3,5,6-tetrafluorobenzyl 2,2-dimethyl-3-((E)-2-cyano-3-t-butyloxy-3-oxo-1-propenyl) cyclopropanecarboxylate] | 3.4 |
| COCc1c(F)c(F)c(COC(=O)C2C(/C=C(\F)C(=O)OC)C2(C)C)c(F)c1F (stereo not drawn) [Comparative Compound, (4-methoxymethyl-2,3,5,6-tetrafluoro)phenylmethyl [1R[1α, 3β(Z)]]-2,2-dimethyl-3-(2-fluoro-3-methoxy-3-oxopropenyl)cyclopropanecarboxylate, reference compound] | >10 |
| CCCOC(=O)/C(C#N)=C/C1C(C(=O)OCc2c(F)c(F)c(COC)c(F)c2F)C1(C)C (stereo not shown) [Present Compound 3, 4-methoxymethyl-2,3,5,6-tetrafluorobenzyl 2,2-dimethyl-3-((E)-2-cyano-3-propoxy-3-oxo-1-propenyl) cyclopropanecarboxylate] | 4.1 |
